According to US4599352A, “Antineoplastic platinum (IV) complexes and compositions” (priority 1984, dated 1986):

Assays:
IP L1210 leukemia = assay: Mouse optimal (highest tolerated) dose, IP L1210 leukemia, Days 1, 5 and 9 schedule (Table 7); type: in vivo
Excerpt: *IP L1210 leukemia, Days 1, 5 and 9 schedule. Highest tolerated dose in a
least 2 of 3 experiments (i.e,. animal weight difference (testcontrol)

[1] = system: IP-Implanted L1210 Leukemia; assay: Dose-response against IP-implanted L1210 leukemia, IP treatment Days 1, 5 and 9, 30-day test (Table 2); type: in vivo, CD2Fl male mice
Description: (§1) Biological properties of the compounds of the present invention were determined following the protocol described in Cancer Chemotherapy Reports, Vol. 3, No. 3, 1972 which report is incorporated herein by reference.
(§2) This experiment (A8-00005 3LE31) was conducted at the Southern Research Institute, Birmingham, Ala. under the supervision of Dr. Daniel Griswold. The protocols were the same as those published previously (Geran et al., Cancer Chemotherapy Reports 3: No. 2, 1972 [Attachment 11]). 10^5 cells were implanted intraperitoneally in CD2Fl male mice on Day 0. Drug treatments were given intraperitoneally as single injections at the doses indicated on Days 1, 5 and 9 after tumor implantation. The diluent was saline except for NSC-271674 where 5% sodium bicarbonate was used. All drugs were prepared fresh on the day of injection, and all were administered in solution. Median survival times for both control and drug-treated mice were determined and expressed as a percentage (% T/C). Body weights were determined on Day 5 and expressed as a weight difference (body weight of the drug-treated animals minus that of the control animals in grams) (T-C). The diluent control animals lived a median of 8.4 days and gained 1.9 grams by Day 5 in this experiment. All animals, including Day 30 survivors, were used in the calculation of median survival times. The log10 change in tumor burden refers to the net log change in viable tumor cell population at the end of therapy (Rx) as compared to the start of therapy; e.g., a […] means that there was a […] and a 3 log change means there was a 1000-fold increase in tumor burden at the end of therapy. The tumor burden at the start of therapy was about 6.1×10^5 cells in this experiment.

IP L1210 = assay: Activity against IP-implanted L1210 leukemia sensitive to cisplatin, 30 day test (Table 3); type: in vivo, Female CD2Fl mice
Description: as §1
(§3) Other known mechanisms of resistance for other classes of agents, such as gene amplification or target enzyme change or amplication, also need to be explored. The experiments summarized in Table 3 were conducted at the same time against both sublines using the same drug preparations. […] These experiments were repeated in a second laboratory as documented in Table 4. However, in these experiments the animals were held for 60 rather than 30 days to evaluate whether or not long-term survivors are produced after drug treatment in a more challenging setting.
as §2
These experiments (A8-00008 3LE31 and A8-00001 3DP31) were conducted concurrently at the Southern Research Institute, Birmingham, Ala. under the supervision of Dr. Daniel Griswold. See Table 4 for experimental details. The diluent control animals bearing L1210 leukemia lived a median of 8.6 days and gained 1.3 grams by Day 5. […] Female CD2Fl mice were used for these experiments.

IP L1210/Cisplatin = assay: Activity against IP-implanted L1210/Cisplatin leukemia resistant to cisplatin, 30 day test (Table 3); type: in vivo, Female CD2Fl mice
Description: as §1, §3
This experiment (A8-00005 3LE31) was conducted at the Southern Research Institute, Birmingham, Ala. under the supervision of Dr. Daniel Griswold. The protocols were the same as those published previously (Geran et al., Cancer Chemotherapy Reports 3: No. 2, 1972 [Attachment 11]). 10^5 cells were implanted intraperitoneally in CD2Fl male mice on Day 0. Drug treatments were given intraperitoneally as single injections at the doses indicated on Days 1, 5 and 9 after tumor implantation. The diluent was saline except for NSC-271674 where 5% sodium bicarbonate was used. All drugs were prepared fresh on the day of injection, and all were administered in solution. Median survival times for both control and drug-treated mice were determined and expressed as a percentage (% T/C). Body weights were determined on Day 5 and expressed as a weight difference (body weight of the drug-treated animals minus that of the control animals in grams) (T-C). The diluent control animals lived a median of 8.4 days and gained 1.9 grams by Day 5 in this experiment. All animals, including Day 30 survivors, were used in the calculation of median survival times. The log10 change in tumor burden refers to the net log change in viable tumor cell population at the end of therapy (Rx) as compared to the start of therapy; e.g., a […] means that there was a […] and a 3 log change means there was a 1000-fold increase in tumor burden at the end of therapy. The tumor burden at the start of therapy was about 6.1×10^5 cells in this experiment. […]

SMILES: [Cl][Pt]1([Cl])([Cl])([Cl])[NH]C2CCCCC2[NH]1 (stereo not drawn) [trans (d, l), (d,l)-Tetrachloro-trans-1,2-cyclohexanediamine platinum (IV)]
- Mouse Optimal Dose (highest tolerated dose in at least 2 of 3 experiments) (IP L1210 leukemia): 8 mg/kg
- 30-Day Survivors/Total ([1]; 1 mg/kg/dose IP): 0/6
- Approx. Log10 Change in Tumor Burden at End of Rx ([1]; 1 mg/kg/dose IP): ~2.9 log10
- Body Weight Difference ([1]; 1 mg/kg/dose IP): -0.5 Grams
- Median % T/C ([1]; 1 mg/kg/dose IP): 122%
- 30-Day Survivors/Total ([1]; 2 mg/kg/dose IP): 0/6
- Approx. Log10 Change in Tumor Burden at End of Rx ([1]; 2 mg/kg/dose IP): ~2.5 log10
- Body Weight Difference ([1]; 2 mg/kg/dose IP): -1.5 Grams
- Median % T/C ([1]; 2 mg/kg/dose IP): 146%
- 30-Day Survivors/Total ([1]; 4 mg/kg/dose IP): 1/6
- Approx. Log10 Change in Tumor Burden at End of Rx ([1]; 4 mg/kg/dose IP): ~-0.5 log10
- Body Weight Difference ([1]; 4 mg/kg/dose IP): -1.5 Grams
- Median % T/C ([1]; 4 mg/kg/dose IP): 202%
- 30-Day Survivors/Total ([1]; 8 mg/kg/dose IP): 4/6
- Approx. Log10 Change in Tumor Burden at End of Rx ([1]; 8 mg/kg/dose IP): ~-5.7 log10
- Body Weight Difference ([1]; 8 mg/kg/dose IP): -1.2 Grams
- Median % T/C ([1]; 8 mg/kg/dose IP): 357%
- Body Weight Difference ([1]; 8 mg/kg/dose IP, listed as trans dl): less than -4 Grams
- 30-Day Survivors/Total ([1]; 16 mg/kg/dose IP): 1/6
- Approx. Log10 Change in Tumor Burden at End of Rx ([1]; 16 mg/kg/dose IP): ~2.6 log10
- Body Weight Difference ([1]; 16 mg/kg/dose IP): -4.6 Grams
- Median % T/C ([1]; 16 mg/kg/dose IP): 142%
- Optimal dose (dose producing best therapeutic response) ([1]; day 1, 5 and 9 schedule): 8 mg/kg/injection
- 30 Day Survivors/Total (IP L1210; 1 mg/kg/dose): 0/6
- Approx. Log10 Change in Tumor Burden at End of RX (IP L1210; 1 mg/kg/dose): ~2.8 log10
- Median % T/C (IP L1210; 1 mg/kg/dose): 125%
- 30 Day Survivors/Total (IP L1210; 2 mg/kg/dose): 0/6
- Approx. Log10 Change in Tumor Burden at End of RX (IP L1210; 2 mg/kg/dose): ~2.4 log10
- Median % T/C (IP L1210; 2 mg/kg/dose): 151%
- 30 Day Survivors/Total (IP L1210; 4 mg/kg/dose): 2/6
- Approx. Log10 Change in Tumor Burden at End of RX (IP L1210; 4 mg/kg/dose): ~-1.5 log10
- Median % T/C (IP L1210; 4 mg/kg/dose): 212%
- 30 Day Survivors/Total (IP L1210; 8 mg/kg/dose): 3/6
- Approx. Log10 Change in Tumor Burden at End of RX (IP L1210; 8 mg/kg/dose): ~-5.9 log10
- Median % T/C (IP L1210; 8 mg/kg/dose): 348%
- 30 Day Survivors/Total (IP L1210; 16 mg/kg/dose): 1/6
- Median % T/C (IP L1210; 16 mg/kg/dose): 143%
- 30 Day Survivors/Total (IP L1210/Cisplatin; 1 mg/kg/dose): 0/6
- Approx. Log10 Change in Tumor Burden at End of RX (IP L1210/Cisplatin; 1 mg/kg/dose): ~2.8 log10
- Median % T/C (IP L1210/Cisplatin; 1 mg/kg/dose): 115%
- 30 Day Survivors/Total (IP L1210/Cisplatin; 2 mg/kg/dose): 0/6
- Approx. Log10 Change in Tumor Burden at End of RX (IP L1210/Cisplatin; 2 mg/kg/dose): ~2.8 log10
- Median % T/C (IP L1210/Cisplatin; 2 mg/kg/dose): 118%
- 30 Day Survivors/Total (IP L1210/Cisplatin; 4 mg/kg/dose): 2/6
- Approx. Log10 Change in Tumor Burden at End of RX (IP L1210/Cisplatin; 4 mg/kg/dose): ~-3.4 log10
- Median % T/C (IP L1210/Cisplatin; 4 mg/kg/dose): 225%
- 30 Day Survivors/Total (IP L1210/Cisplatin; 8 mg/kg/dose): 4/6
- Approx. Log10 Change in Tumor Burden at End of RX (IP L1210/Cisplatin; 8 mg/kg/dose): ~-5.9 log10
- Median % T/C (IP L1210/Cisplatin; 8 mg/kg/dose): 322%
- 30 Day Survivors/Total (IP L1210/Cisplatin; 16 mg/kg/dose): 1/6
- Median % T/C (IP L1210/Cisplatin; 16 mg/kg/dose): 110%
